The results in this text go back to ChEMBL document CHEMBL6114960, “Discovery of First-in-Class FXR and HSD17B13 Dual Modulator for the Treatment of Metabolic Dysfunction-Associated Fatty Liver Disease” (J Med Chem, 2025).

The target in experiment [1] is T1, G-protein coupled bile acid receptor 1 (Homo sapiens, UniProt Q8TDU6).
T1 sequence (Q8TDU6 whole entry): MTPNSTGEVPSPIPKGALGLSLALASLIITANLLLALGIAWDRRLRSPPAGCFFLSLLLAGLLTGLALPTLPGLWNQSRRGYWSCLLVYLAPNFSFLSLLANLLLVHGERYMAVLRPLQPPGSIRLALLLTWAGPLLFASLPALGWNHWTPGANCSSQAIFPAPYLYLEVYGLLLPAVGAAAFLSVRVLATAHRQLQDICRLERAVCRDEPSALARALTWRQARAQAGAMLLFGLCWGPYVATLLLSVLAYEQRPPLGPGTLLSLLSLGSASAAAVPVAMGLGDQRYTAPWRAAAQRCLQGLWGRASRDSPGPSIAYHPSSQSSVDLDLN
Description: Agonist activity at TGR5 in human NCI-H716 cells assessed as increase in intracellular cAMP level preincubated with compound for 60 mins followed by IBMX addition and measured after 24 hrs by HTR-FRET assay. Format: functional, cell-based. Background: Cyclic AMP is a second messenger, typically raised through Gs and lowered through Gi signalling.

The next experiment concerns the target T2, Bile acid receptor (Homo sapiens, UniProt Q96RI1).
T2 sequence (Q96RI1 whole entry): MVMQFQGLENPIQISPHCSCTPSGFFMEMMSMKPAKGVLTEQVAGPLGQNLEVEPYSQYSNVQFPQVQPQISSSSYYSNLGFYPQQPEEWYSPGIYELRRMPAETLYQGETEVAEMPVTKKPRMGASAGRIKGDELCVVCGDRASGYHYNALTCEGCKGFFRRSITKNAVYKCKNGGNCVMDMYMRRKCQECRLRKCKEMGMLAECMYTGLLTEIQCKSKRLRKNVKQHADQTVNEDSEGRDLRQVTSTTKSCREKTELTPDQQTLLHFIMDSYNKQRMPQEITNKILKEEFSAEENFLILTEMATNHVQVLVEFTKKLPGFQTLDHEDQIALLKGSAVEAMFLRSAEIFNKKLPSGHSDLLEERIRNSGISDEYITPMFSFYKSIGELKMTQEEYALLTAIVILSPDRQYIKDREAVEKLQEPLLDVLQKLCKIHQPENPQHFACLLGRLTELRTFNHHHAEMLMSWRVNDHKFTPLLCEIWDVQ
The experiment in a line: Agonist activity at FXR-LBD (unknown origin) incubated for 3 hrs in presence of fluorescein-coactivator peptide by TR-FRET analysis. For orientation: TR-FRET usually uses a lanthanide donor and a delayed reading to cut background.

Experiment [2] deals with T3, Mineralocorticoid receptor (Homo sapiens, UniProt P08235).
T3 sequence (P08235 whole entry): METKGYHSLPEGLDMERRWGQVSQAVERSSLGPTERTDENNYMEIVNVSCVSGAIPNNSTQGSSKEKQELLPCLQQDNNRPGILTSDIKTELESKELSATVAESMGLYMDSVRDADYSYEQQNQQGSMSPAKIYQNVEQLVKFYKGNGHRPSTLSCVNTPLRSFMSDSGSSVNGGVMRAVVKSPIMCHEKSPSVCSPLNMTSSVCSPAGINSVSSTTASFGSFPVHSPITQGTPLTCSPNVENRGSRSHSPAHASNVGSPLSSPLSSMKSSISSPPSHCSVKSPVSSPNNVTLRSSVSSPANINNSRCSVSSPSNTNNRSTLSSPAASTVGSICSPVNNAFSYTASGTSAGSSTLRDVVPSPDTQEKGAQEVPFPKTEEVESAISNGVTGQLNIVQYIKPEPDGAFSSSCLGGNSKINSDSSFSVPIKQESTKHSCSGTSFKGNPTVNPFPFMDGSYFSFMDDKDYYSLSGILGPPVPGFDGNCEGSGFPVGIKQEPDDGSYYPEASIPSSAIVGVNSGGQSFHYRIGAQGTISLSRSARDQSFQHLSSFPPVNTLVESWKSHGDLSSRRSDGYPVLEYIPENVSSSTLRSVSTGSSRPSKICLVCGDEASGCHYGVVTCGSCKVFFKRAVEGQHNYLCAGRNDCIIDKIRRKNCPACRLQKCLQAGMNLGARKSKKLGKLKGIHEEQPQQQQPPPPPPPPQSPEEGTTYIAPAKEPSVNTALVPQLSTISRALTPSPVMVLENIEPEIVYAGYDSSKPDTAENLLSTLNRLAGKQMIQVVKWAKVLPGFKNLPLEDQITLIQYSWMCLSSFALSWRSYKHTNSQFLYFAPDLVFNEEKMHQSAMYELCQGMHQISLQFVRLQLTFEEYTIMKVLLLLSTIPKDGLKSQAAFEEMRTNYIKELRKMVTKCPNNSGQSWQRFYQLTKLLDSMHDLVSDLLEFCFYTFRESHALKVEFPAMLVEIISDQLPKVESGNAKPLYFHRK
Description: Agonist activity at mineralocorticoid receptor (unknown origin) transfected in green monkey CV-1 cells co-transfected with NHR responsive luciferase reporter incubated for 18 hrs by luciferase assay. In kind it is cell-based. In general terms: Reporter assays use an easily measured gene product as a stand-in for the process of interest.

The target of the next experiment is T4, Androgen receptor (Homo sapiens, UniProt P10275).
T4 sequence (P10275 whole entry): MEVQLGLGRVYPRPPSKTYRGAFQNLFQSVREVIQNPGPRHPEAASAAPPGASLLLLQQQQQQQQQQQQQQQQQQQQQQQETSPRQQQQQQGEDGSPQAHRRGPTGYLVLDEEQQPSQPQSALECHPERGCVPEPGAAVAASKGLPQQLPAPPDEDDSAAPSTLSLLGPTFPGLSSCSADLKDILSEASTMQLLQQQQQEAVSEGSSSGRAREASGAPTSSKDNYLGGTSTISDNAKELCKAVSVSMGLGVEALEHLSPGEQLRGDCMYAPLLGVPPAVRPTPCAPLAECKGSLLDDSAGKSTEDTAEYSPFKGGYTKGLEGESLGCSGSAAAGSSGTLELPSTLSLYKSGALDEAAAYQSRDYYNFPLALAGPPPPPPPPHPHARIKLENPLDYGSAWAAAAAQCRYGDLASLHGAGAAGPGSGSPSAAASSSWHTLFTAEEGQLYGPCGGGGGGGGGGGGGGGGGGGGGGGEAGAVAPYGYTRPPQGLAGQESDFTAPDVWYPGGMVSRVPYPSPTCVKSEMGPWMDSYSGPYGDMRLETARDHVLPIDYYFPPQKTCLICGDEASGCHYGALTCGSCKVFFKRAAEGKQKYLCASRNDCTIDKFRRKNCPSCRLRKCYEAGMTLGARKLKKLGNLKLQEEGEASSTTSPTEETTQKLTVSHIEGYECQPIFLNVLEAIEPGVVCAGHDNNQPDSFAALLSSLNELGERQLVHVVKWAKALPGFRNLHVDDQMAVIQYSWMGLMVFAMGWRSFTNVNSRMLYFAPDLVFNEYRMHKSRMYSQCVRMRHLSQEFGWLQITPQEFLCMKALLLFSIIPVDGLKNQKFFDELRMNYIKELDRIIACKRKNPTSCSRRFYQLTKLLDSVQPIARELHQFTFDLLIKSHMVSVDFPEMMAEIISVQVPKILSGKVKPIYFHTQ
Description: Agonist activity at androgen receptor (unknown origin) transfected in green monkey CV-1 cells co-transfected with NHR responsive luciferase reporter incubated for 18 hrs by luciferase assay. Format: cell-based.

A value given as a limit tells only on which side of the number the result lay.

One may read the EC50 as the concentration at which the effect is half-maximal.

In the case of `O=C(O)c1ccc(-c2ccc(OCc3c(-c4c(Cl)cccc4Cl)noc3C3CC3)cc2)cc1`, the EC50 in experiment [1] is over 10 µM; on Bile acid receptor, 0.052 µM; in experiment [2] it was over 10 µM; on Androgen receptor, over 10 µM.
